Source: PubChem BioAssay AID328 (DTP/NCI, 2004)
Values joined by “and” are separate entries in the source; they are usually repeats but may differ in a detail not shown here. Identical values can stand only once. Toxic doses and inconclusive results are not listed.

System: BDF1 mice, P388 leukemia ip, median survival T/C
Assay: NCI In Vivo Anticancer Drug Screen. Data for tumor model P388 Leukemia (intraperitoneal) in B6D2F1 (BDF1) mice
Details: endpoint: median survival time, higher = longer survival
Outline: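 T/C = treated-group survival ÷ vehicle-control survival; tumour transplanted into mice before dosing.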

[1] = dose: 100.0 mg/kg/injection, schedule: Q01DX001 (ip), vehicle: saline with Tween-80
[2] = dose: 200.0 mg/kg/injection, schedule: Q01DX001 (ip), vehicle: saline with Tween-80
[3] = dose: 50.0 mg/kg/injection, schedule: Q01DX005 (ip), vehicle: saline with Tween-80
[4] = dose: 50.0 mg/kg/injection, schedule: Q01DX009 (ip), vehicle: saline with Tween-80
[5] = dose: 100.0 mg/kg/injection, schedule: Q01DX009 (ip), vehicle: saline with Tween-80
[6] = dose: 100.0 mg/kg/injection, schedule: Q04DX003 (ip), vehicle: saline with Tween-80
[7] = dose: 200.0 mg/kg/injection, schedule: Q04DX003 (ip), vehicle: saline with Tween-80
[8] = dose: 400.0 mg/kg/injection, schedule: Q04DX003 (ip), vehicle: saline with Tween-80
[9] = dose: 200.0 mg/kg/injection, schedule: Q01DX009 (ip), vehicle: saline with Tween-80
[10] = dose: 400.0 mg/kg/injection, schedule: Q01DX009 (ip), vehicle: saline with Tween-80
[11] = dose: 25.0 mg/kg/injection, schedule: Q01DX009 (ip), vehicle: saline with Tween-80
[12] = dose: 25.0 mg/kg/injection, schedule: Q01DX009 (ip), vehicle: saline
[13] = dose: 50.0 mg/kg/injection, schedule: Q01DX009 (ip), vehicle: saline

With c1cc2c(c(NC3=NCCO3)c1)CCCC2 the T/C (dose: 37.5 mg/kg/injection, schedule: Q01DX009 (ip), vehicle: saline with Tween-80) was 113 % of control, the T/C (dose: 75.0 mg/kg/injection, schedule: Q01DX009 (ip), vehicle: saline with Tween-80) was 118 % of control and the T/C (dose: 150.0 mg/kg/injection, schedule: Q01DX009 (ip), vehicle: saline with Tween-80) was 120 % of control.
C[N+]12CCCc3cc(CO)cc(c31)CCC2 was tested, and the T/C (dose: 12.5 mg/kg/injection, schedule: Q04DX003 (ip), vehicle: Klucel (hydroxypropylcellulose) (HPC)) was 103 % of control, the T/C (dose: 25.0 mg/kg/injection, schedule: Q04DX003 (ip), vehicle: Klucel (hydroxypropylcellulose) (HPC)) was 100 % of control and the T/C (dose: 50.0 mg/kg/injection, schedule: Q04DX003 (ip), vehicle: Klucel (hydroxypropylcellulose) (HPC)) was 119 % of control.
With CCOC(=O)C1=C(N)CC(c2ccc(C#N)cc2)NC1c1cccc(OC)c1O (configuration not stated) the T/C [1] was 105 % of control and the T/C [2] was 111 % of control.
In the case of C=C1C(=O)CCC1/C=C\C (configuration not stated), the T/C [3] is reported as 97 % of control.
In the case of O=[N+]([O-])c1ccc(SCc2ccccc2)c2nonc12, the T/C [4] is reported as 150 % of control and the T/C [5] is reported as 153 % of control.
With O=Cc1ccc(C(=O)O)cc1 the T/C [6] was 100 % of control, the T/C [7] was 109 % of control and the T/C [8] was 113 % of control.
COc1cccc(CCNC(=O)CC(=O)O)c1OC was tested, and the T/C [6] was 100 % of control, the T/C [7] was 105 % of control and the T/C [8] was 100 % of control.
For NC(=O)CC(NC(=O)OCc1ccccc1)c1nn[nH]n1 (configuration not stated), the T/C [5] was 90 % of control, the T/C [9] was 100 % of control and the T/C [10] was 95 % of control.
For OC12CCC[N+]1(Cc1ccccc1)CCC2 (configuration not stated), the T/C (dose: 25.0 mg/kg/injection, schedule: Q01DX010 (ip), vehicle: carboxymethylcellulose (CMC)) was 90 % of control.
For O=C1c2ccccc2C(=O)c2c(O)c(NCCCN3CCOCC3)cc(O)c21, the T/C [3] was 99 % of control, the T/C (dose: 100.0 mg/kg/injection, schedule: Q01DX005 (ip), vehicle: saline with Tween-80) was 94 % of control and the T/C (dose: 200.0 mg/kg/injection, schedule: Q01DX005 (ip), vehicle: saline with Tween-80) was 94 % of control.
With COC1=C(OC)C23CCc4ccc(OC)c(O)c4C2(CCN3C)CC1=O (configuration not stated) the T/C (dose: 50.0 mg/kg/injection, schedule: Q01DX010 (ip), vehicle: carboxymethylcellulose (CMC)) was 88 % of control and the T/C (dose: 100.0 mg/kg/injection, schedule: Q01DX010 (ip), vehicle: carboxymethylcellulose (CMC)) was 100 % of control.
O=c1[nH]c(Cl)nc2c(Cl)c(C(Cl)(Cl)Cl)nn12 was tested, and the T/C [11] was 104 % of control, the T/C (dose: 25.0 mg/kg/injection, schedule: Q04DX003 (ip), vehicle: saline with Tween-80) was 113 % of control and the T/C [4] was 109 % of control. The T/C (dose: 50.0 mg/kg/injection, schedule: Q04DX003 (ip), vehicle: saline with Tween-80) was 120 % of control, the T/C [5] was 106 % of control and the T/C [6] was 93 % of control and 104 % of control. For the same compound, the T/C [9] was 109 % of control, the T/C [10] was 104 % of control and the T/C [8] was 86 % of control.
For CCCCNC(C)(C)C(=O)c1cccs1, the T/C [12] was 100 % of control, the T/C [13] was 100 % of control and the T/C (dose: 50.0 mg/kg/injection, schedule: Q04DX003 (ip), vehicle: saline) was 100 % of control. The T/C (dose: 100.0 mg/kg/injection, schedule: Q01DX009 (ip), vehicle: saline) was 100 % of control and the T/C (dose: 100.0 mg/kg/injection, schedule: Q04DX003 (ip), vehicle: saline) was 118 % of control.
With O=c1[nH]c(=O)n(C2CC(O)C(CO)O2)cc1C(F)(F)F (configuration not stated) the T/C (dose: 62.5 mg/kg/injection, schedule: Q01DX009 (ip), vehicle: Klucel (hydroxypropylcellulose) (HPC)) was 104 % of control, the T/C (dose: 125.0 mg/kg/injection, schedule: Q01DX009 (ip), vehicle: Klucel (hydroxypropylcellulose) (HPC)) was 118 % of control and the T/C (dose: 250.0 mg/kg/injection, schedule: Q01DX009 (ip), vehicle: Klucel (hydroxypropylcellulose) (HPC)) was 122 % of control. The T/C (dose: 500.0 mg/kg/injection, schedule: Q01DX009 (ip), vehicle: Klucel (hydroxypropylcellulose) (HPC)) was 90 % of control.
CCOC(=O)/C(C#N)=C1/CCCN1 was tested, and the T/C [5] was 104 % of control, the T/C [9] was 100 % of control and the T/C [10] was 100 % of control.
COc1cc2c(cc1O)C(=O)CCCC2 was tested, and the T/C [11] was 97 % of control, the T/C [4] was 101 % of control and 120 % of control and the T/C (dose: 100.0 mg/kg/injection, schedule: Q01DX009 (ip), vehicle: Klucel (hydroxypropylcellulose) (HPC)) was 103 % of control. For the same compound, the T/C [5] was 97 % of control, the T/C [6] was 100 % of control and the T/C (dose: 200.0 mg/kg/injection, schedule: Q01DX009 (ip), vehicle: Klucel (hydroxypropylcellulose) (HPC)) was 103 % of control. For the same compound, the T/C [7] was 104 % of control, the T/C (dose: 400.0 mg/kg/injection, schedule: Q01DX009 (ip), vehicle: Klucel (hydroxypropylcellulose) (HPC)) was 103 % of control and the T/C [8] was 95 % of control.
For COCC(O)Cn1ccnc1[N+](=O)[O-] (configuration not stated), the T/C (dose: 540.0 mg/kg/injection, schedule: Q01DX001 (ip), vehicle: saline) was 104 % of control, the T/C (dose: 600.0 mg/kg/injection, schedule: Q01DX001 (ip), vehicle: saline) was 92 % of control and 101 % of control and the T/C (dose: 900.0 mg/kg/injection, schedule: Q01DX001 (ip), vehicle: saline) was 107 % of control. For the same compound, the T/C (dose: 1000.0 mg/kg/injection, schedule: Q01DX001 (ip), vehicle: saline) was 99 % of control and the T/C (dose: 1500.0 mg/kg/injection, schedule: Q01DX001 (ip), vehicle: saline) was 104 % of control.
With ClCC(Cl)CN1CCCCC1 (configuration not stated) the T/C (dose: 12.5 mg/kg/injection, schedule: Q01DX009 (ip), vehicle: saline) was 90 % of control, the T/C [12] was 86 % of control and the T/C [13] was 104 % of control.
In the case of Clc1ccc2c(c1)CN1Cc3cc(Cl)ccc3C2C1, the T/C (dose: 50.0 mg/kg/injection, schedule: Q01DX001 (ip), vehicle: saline with Tween-80) is reported as 108 % of control, the T/C [1] is reported as 108 % of control and the T/C [2] is reported as 97 % of control.
With CN=C(N)Nc1ccc(C(=O)O)cc1 the T/C (dose: 50.0 mg/kg/injection, schedule: Q01DX009 (ip), vehicle: water) was 93 % of control, the T/C (dose: 100.0 mg/kg/injection, schedule: Q01DX009 (ip), vehicle: water) was 99 % of control and the T/C (dose: 100.0 mg/kg/injection, schedule: Q04DX003 (ip), vehicle: water) was 100 % of control. The T/C (dose: 200.0 mg/kg/injection, schedule: Q01DX009 (ip), vehicle: water) was 90 % of control, the T/C (dose: 200.0 mg/kg/injection, schedule: Q04DX003 (ip), vehicle: water) was 94 % of control and the T/C (dose: 400.0 mg/kg/injection, schedule: Q01DX009 (ip), vehicle: water) was 92 % of control. The T/C (dose: 400.0 mg/kg/injection, schedule: Q04DX003 (ip), vehicle: water) was 88 % of control.
Clc1cccc(N2CN(c3cccc(Cl)c3)CN(c3cccc(Cl)c3)C2)c1 was tested, and the T/C [1] was 90 % of control, the T/C [2] was 87 % of control and the T/C (dose: 400.0 mg/kg/injection, schedule: Q01DX001 (ip), vehicle: saline with Tween-80) was 91 % of control.
In the case of CO[C@H]1Nc2c(ccc(C)c2O)C(=O)N2C=C(/C=C/C(N)=O)C[C@@H]12, the T/C (dose: 0.02 mg/kg/injection, schedule: Q01DX010 (ip), vehicle: carboxymethylcellulose (CMC)) is reported as 230 % of control, the T/C (dose: 0.05 mg/kg/injection, schedule: Q01DX010 (ip), vehicle: carboxymethylcellulose (CMC)) is reported as 230 % of control and the T/C (dose: 0.08 mg/kg/injection, schedule: Q01DX009 (ip), vehicle: Klucel (hydroxypropylcellulose) (HPC)) is reported as 242 % of control. The T/C (dose: 0.08 mg/kg/injection, schedule: Q01DX009 (ip), vehicle: saline) was 150 % of control, the T/C (dose: 0.1 mg/kg/injection, schedule: Q01DX010 (ip), vehicle: carboxymethylcellulose (CMC)) was 210 % of control and the T/C (dose: 0.12 mg/kg/injection, schedule: Q01DX009 (ip), vehicle: saline with Tween-80) was 168 % of control. For the same compound, the T/C (dose: 0.18 mg/kg/injection, schedule: Q01DX009 (ip), vehicle: Klucel (hydroxypropylcellulose) (HPC)) was 238 % of control, the T/C (dose: 0.2 mg/kg/injection, schedule: Q01DX010 (ip), vehicle: carboxymethylcellulose (CMC)) was 185 % of control and the T/C (dose: 0.25 mg/kg/injection, schedule: Q01DX010 (ip), vehicle: saline) was 90 % of control. For the same compound, the T/C (dose: 151.0 micrograms/kg/injection, schedule: Q04DX003 (ip), vehicle: saline + alcohol) was 186 % of control, the T/C (dose: 216.0 micrograms/kg/injection, schedule: Q04DX003 (ip), vehicle: saline + alcohol) was 177 % of control and 189 % of control and the T/C (dose: 252.0 micrograms/kg/injection, schedule: Q04DX003 (ip), vehicle: saline + alcohol) was 208 % of control. The T/C (dose: 360.0 micrograms/kg/injection, schedule: Q04DX003 (ip), vehicle: saline + alcohol) was 183 % of control and 196 % of control, the T/C (dose: 420.0 micrograms/kg/injection, schedule: Q04DX003 (ip), vehicle: saline + alcohol) was 215 % of control and the T/C (dose: 600.0 micrograms/kg/injection, schedule: Q04DX003 (ip), vehicle: saline + alcohol) was 94 % of control and 112 % of control.
